Measurements from patent US20240374797A1, “SYSTEM AND METHOD FOR EXTRACORPOREAL BLOOD TREATMENT” (Gambro Lundia AB, priority 2020, published 2024).

Key:
Type in all cases: cell-based, human
[1] = system: RCC4 (renal cell carcinoma); assay: Study 2: CellTiter-Glo cell viability, DMEM without sodium pyruvate; details: increase in BOHB concentration (0, 4, 12 mM), 3 d, FIG. 7
Method: (§1) Cell lines established from human colon carcinoma (HCT15, NCI-H508 and COLO205), renal cell carcinoma (769-P, 786-O and RCC4) and glioblastoma (LN-18, A-172 and U-118 MG) were selected for the analysis. All cell lines were obtained from American Type Culture Collection (ATCC, LGC standards, UK) except for RCC4 and HCT15 that was purchased from Sigma-Aldrich (Merck, Germany). In addition, primary human renal cell carcinoma (RCC) cells isolated from patient nephrectomies were included in the study. […]
(§2) Optimal seeding density was determined for each cell line in 96 well plates according to the “Protocol for optimizing cell seeding densities to ensure Log-phase growth”. […] Cover the plate. • Incubate the plate overnight at 37° C., 5% CO2. • Add 50 μL of fresh media to the plate wells to achieve a final volume of 200 μL and incubate for 72 h at 37° C., 5% CO2. • Measure viability using Cell Titer Glo assay according to manufacturer's protocol. • Plot log cell number against luminescence intensity to identify the concentration of cells at which log growth is achieved.
(§3) CellTiter-Glo Luminescent cell viability assay (Promega) was used as a readout of viability.
(§4) For each cell line, optimal number of cells as determined above were seeded into 96-well plates on day 0. […]

A172 (glioblastoma) = assay: as above; details: increase in BOHB concentration (0, 4, 12 mM), 3 d, FIG. 7
Method: as §1, §2, §3, §4

glioma cell line U118MG = assay: Example 2: CellTiter-Glo readout of cell numbers, ketones added to Medium A-C; details: for growth, repeat experiments 2-6 (inconsistent results): ketone added separately (16 mM BOHB or 8 mM Acac), FIG. 15; for number of cells compared to 8 mM LiCl control: 8 mM Acac
Method: (§5) To study the effect of a nutrient restricted ketogenic environment on cancer cell growth in vitro, three different cell culture media were formulated. Medium A was full RPMI1640 medium that the cell lines routinely are cultured in. Medium B was used as an approximation of the conditions found in normal human serum. The levels of glucose, glutamine, serine, glycine and arginine were adjusted to match normal physiological levels found in human serum. These nutrients were selected based on their reported use as energy source and effects on cancer cell metabolic state. Medium C was used to emulate the ketogenic nutrient restricted Cancer Dialysis condition. Here, the levels of the selected nutrients were reduced to half of the physiological levels in Medium B, and the ketone body BOHB was added.
(§6) Human cancer cell lines are routinely established and cultured at atmospheric oxygen levels (21% O2), yet, the physiological oxygen levels in tissue is considerably lower and varies from 3-13% [Ward, Biochim Biophys Acta 2008; 1777:1-14. Within the tumor microenvironment, the fast growth rate of cancer cells combined with an often malformed and defective vasculature often results in hypoxic regions with oxygen levels ranging from 0-5%. Given the effects of oxygen levels on energy metabolism [Xie et al., J Biol Chem 2017; 292:16825-16832], and to further mimic the physiological conditions in vivo, the growth of the cancer cell lines in Medium A, B and C was studied at both ambient, 21% O2, and at the more physiological 5% O2.
(§7) Cells were maintained in RPMI-1640 medium (31870-025 GIBCO) with the addition of 10% serum, 200 mM L-glutamine and 1% penicillin-streptomycin (PEST) in humidified chambers at 37° C. and 5% CO2. For hypoxic conditions (5% O2), cells were maintained in a Galaxy 14 S CO2 incubator (Eppendorf) where N2 was used to adjust the O2 level to 5%.
(§8) Medium A: RPMI1640 (31870-025, GIBCO) with the addition of 1% PEST, 200 mM L-glutamine and 10% dialyzed serum. Dialyzed serum was used to reduce the amounts of small molecules such as amino acids.
(§9) Medium B and C were prepared from RPMI1640 modified medium powder without L-glutamine, glucose and amino acids (R9010-01, US Biological Life Sciences). For 1 L medium, 7.4 g powder was dissolved in 900 ml sterile water without heating and 2 g sodium bicarbonate was added. Amino acids listed in Table 5 were added to the same concentration as in full RPMI1640 medium (Table 5). After all additions, the medium was sterilized by filtering through 0.22 um membranes and divided into two bottles.
(§10) In Medium B, to mimic physiological conditions, the levels of glutamine, serine, glycine, arginine and glucose were set to the median of measured levels in human serum, based on data from the Mayo Clinic Laboratories (https://www.mayocliniclabs.com/test-catalog/Clinical+and+Interpretive/9265).
(§11) To model Cancer Dialysis conditions in Medium C, the levels of these nutrients were reduced to 50% of the physiological levels. As for Medium A, 1% PEST and 10% dialyzed serum were added to Medium B and C. Sodium pyruvate, that is a common addition in cell culture medium, was not present in any of the used media.
(§12) Stock solutions of DL-β-Hydroxybutyric acid sodium salt (H6501, Sigma Aldrich) and Lithium Acetoacetate (A8509, Sigma Aldrich) were prepared in water, sterile filtered, aliquoted and stored at −20° C. Lithium Chloride (L7026, Sigma Aldrich) was used as a control for the addition of Lithium in the Li-Acac.
(§13) CellTiter-Glo Luminescent cell viability assay (Promega) was used as a readout of cell numbers according to the manufacturers' instructions. In experiments shown in FIG. 12-13, double plates were seeded and treated. One set of plates was used for collection of medium for lactate measurement (see below) and the CellTiterGlo-assay. The other set of plates was frozen at −80° C. at the end of the experiment. […]

glioma cell line A172 = assay: as above; details: for growth, repeat experiments 2-6 (inconsistent results): ketone added separately (16 mM BOHB or 8 mM Acac), FIG. 14; for number of cells compared to 8 mM LiCl control: 8 mM Acac
Method: as §5, §6, §7, §8, §9, §10, §11, §12, §13

[2] = system: RCC4 renal carcinoma cell line; assay: Example 2: CellTiter-Glo readout of cell numbers in Medium A-C; details: high levels of BOHB or combination of BOHB and Acac, FIG. 16
Method: as §5, with “Here, the levels of the selected nutrients were reduced to half of the physiological levels in Medium B, and the ketone body BOHB was added.” left out
All cell lines were purchased from ATCC (ATCC, LGC standards) except for RCC4 that was from Sigma-Aldrich (Merck). […] Optimal seeding density was determined for each cell line in 96-well plates cultured for 3 days in standard cell culture medium. […]
In Medium B, to mimic physiological conditions, the levels of glutamine, serine, glycine, arginine and glucose were set to the median of measured levels in human serum, based on data from the Mayo Clinic Laboratories (https://www.mayocliniclabs.com/test-catalog/Clinical+and+Interpretive/9265). […]
CellTiter-Glo Luminescent cell viability assay (Promega) was used as a readout of cell numbers according to the manufacturers' instructions. […]

[3] = Medium C, 16 mM BOHB, at both 21 and 5% O2
[4] = Medium A, both normoxia and hypoxia

SMILES | proliferation of cells [1] | proliferation of cells (A172 (glioblastoma)) | growth inhibitory effect (glioma cell line U118MG; Medium A, 16 mM BOHB alone, both normoxia and hypoxia, FIG. 13) | number of cells, % compared to C-medium without BOHB (glioma cell line U118MG; [3]) | growth, repeat experiments 2-6 (inconsistent results) (glioma cell line U118MG; Medium C) | growth inhibitory effect (glioma cell line A172; Medium A, 16 mM BOHB alone, both normoxia and hypoxia, FIG. 12) | number of cells, % of the amount in Medium B without BOHB (glioma cell line A172; Medium B, hypoxic (5% O2), BOHB added (16 mM)) | number of cells, % compared to C-medium without BOHB (glioma cell line A172; [3]) | growth, repeat experiments 2-6 (inconsistent results) (glioma cell line A172; Medium C) | increased sensitivity to ketones in nutrient restricted Medium C [2] | number of cells compared to 8 mM LiCl control (glioma cell line U118MG; [4]) | number of cells compared to 8 mM LiCl control (glioma cell line U118MG; Medium B, 5% O2) | number of cells compared to 8 mM LiCl control (glioma cell line U118MG; Medium B, 21% O2) | amounts of cells compared to 8 mM LiCl control (glioma cell line U118MG; Medium C, 8 mM Acac alone) | number of cells compared to 8 mM LiCl control (glioma cell line A172; [4]) | number of cells compared to 8 mM LiCl control (glioma cell line A172; Medium B, 5% O2) | number of cells compared to 8 mM LiCl control (glioma cell line A172; Medium B, 21% O2) | amounts of cells compared to 8 mM LiCl control (glioma cell line A172; Medium C, 8 mM Acac alone)
CC(O)CC(=O)[O-].[Na+] (racemic) [BOHB, DL-β-Hydroxybutyric acid sodium salt] | suppresses the proliferation of cells | suppresses the proliferation of cells | no growth inhibitory effect | around 30% | trend of reduced growth | no growth inhibitory effect | approximately 70% | around 30% | trend of reduced growth | not found |  |  |  |  |  |  |  | 
CC(=O)CC(=O)[O-].[Li+] [Acac, Lithium Acetoacetate] |  |  |  |  | trend of reduced growth |  |  |  | trend of reduced growth |  | did not reduce the number of cells further | only at 21% O2 | reduced the number of cells significantly | did not significantly reduce the amounts of cells | did not reduce the number of cells further | only at 21% O2 | reduced the number of cells significantly | did not significantly reduce the amounts of cells
